{"source": "paper PMC5218480", "about": "(PLoS ONE, 2017)", "tested_on": "MV-4-11 cells", "experiment": "Gene expression microarray analysis (Affymetrix PrimeView) and GSEA", "format": "cell-based, human", "set-up": "RFU PODN (11730768_x_at) / Fold change /veh PODN (11730768_x_at) / RFU LINC00158 (11744669_a_at) / Fold change /veh LINC00158 (11744669_a_at) / RFU DUSP10 (11751237_a_at) / Fold change /veh DUSP10 (11751237_a_at) / RFU ID3 (11757404_x_at) / Fold change /veh ID3 (11757404_x_at) / RFU PLEKHG5 (11737974_s_at) / Fold change /veh PLEKHG5 (11737974_s_at) / RFU LRRC4B (11730491_at) / Fold change /veh LRRC4B (11730491_at) / RFU GIMAP4 (11747438_a_at) / Fold change /veh GIMAP4 (11747438_a_at) / RFU KRT8 (11758183_x_at) / Fold change /veh KRT8 (11758183_x_at) / RFU CNN1 (11734310_a_at) / Fold change /veh CNN1 (11734310_a_at) / RFU VPS37D (11726825_at) / Fold change /veh VPS37D (11726825_at) / RFU C10orf10 (11716522_x_at) / Fold change /veh C10orf10 (11716522_x_at) / RFU KIR2DL2 /// KIR2DL4 /// KIR2DL5A /// KIR2DL5B /// KIR2DS1 /// KIR2DS2 /// KIR2DS3 /// KIR2DS4 /// KIR3DL3 /// KIR3DL3 /// KIR3DS1 (11738374_at) / Fold change /veh KIR2DL2 /// KIR2DL4 /// KIR2DL5A /// KIR2DL5B /// KIR2DS1 /// KIR2DS2 /// KIR2DS3 /// KIR2DS4 /// KIR3DL3 /// KIR3DL3 /// KIR3DS1 (11738374_at) / RFU C1QL1 (11718748_at) / Fold change /veh C1QL1 (11718748_at) / RFU TMPRSS4 (11747572_a_at) / Fold change /veh TMPRSS4 (11747572_a_at) / RFU HAMP (11756126_x_at) / Fold change /veh HAMP (11756126_x_at) / RFU RNFT2 (11725882_a_at) / Fold change /veh RNFT2 (11725882_a_at) / RFU NR4A2 (11747474_a_at) / Fold change /veh NR4A2 (11747474_a_at) / RFU ABCC12 (11746883_a_at) / Fold change /veh ABCC12 (11746883_a_at) / RFU TMEM136 (11760407_x_at) / Fold change /veh TMEM136 (11760407_x_at) / RFU CLDN22 /// WWC2 (11732394_at) / Fold change /veh CLDN22 /// WWC2 (11732394_at) / RFU HLA-DPB1 (11760878_x_at) / Fold change /veh HLA-DPB1 (11760878_x_at) / RFU SPINT1 (11716480_a_at) / Fold change /veh SPINT1 (11716480_a_at) / RFU GAP43 (11754022_s_at) / Fold change /veh GAP43 (11754022_s_at) / RFU A4GNT (11735810_at) / Fold change /veh A4GNT (11735810_at) / RFU PRB3 (11715151_x_at) / Fold change /veh PRB3 (11715151_x_at) / RFU TUBB4B (11761932_at) / Fold change /veh TUBB4B (11761932_at) / RFU CAPN14 (11732068_a_at) / Fold change /veh CAPN14 (11732068_a_at) / RFU TMCC2 (11721928_a_at) / Fold change /veh TMCC2 (11721928_a_at) / RFU IRGQ (11745062_a_at) / Fold change /veh IRGQ (11745062_a_at) / RFU FAM174B (11720279_a_at) / Fold change /veh FAM174B (11720279_a_at) / RFU TMPRSS4 (11748680_a_at) / Fold change /veh TMPRSS4 (11748680_a_at) / RFU FAM212B (11763350_a_at) / Fold change /veh FAM212B (11763350_a_at) / RFU PLEKHG5 (11743358_a_at) / Fold change /veh PLEKHG5 (11743358_a_at) / RFU ZSCAN30 (11745921_a_at) / Fold change /veh ZSCAN30 (11745921_a_at) / RFU CMKLR1 (11741424_a_at) / Fold change /veh CMKLR1 (11741424_a_at) / RFU LOC101060620 /// MAPK8IP1 (11723275_at) / Fold change /veh LOC101060620 /// MAPK8IP1 (11723275_at) / RFU SPTSSB (11747773_x_at) / Fold change /veh SPTSSB (11747773_x_at) / RFU PRSS12 (11739890_at) / Fold change /veh PRSS12 (11739890_at) / RFU BIN1 (11741810_x_at) / Fold change /veh BIN1 (11741810_x_at) / RFU WNT11 (11732464_a_at) / Fold change /veh WNT11 (11732464_a_at) / RFU C10orf10 (11716521_a_at) / Fold change /veh C10orf10 (11716521_a_at) / RFU C5orf56 (11738089_at) / Fold change /veh C5orf56 (11738089_at) / RFU CYB561 (11721691_x_at) / Fold change /veh CYB561 (11721691_x_at) / RFU ANKRD19P (11752326_a_at) / Fold change /veh ANKRD19P (11752326_a_at) / RFU OR2T12 /// OR2T33 /// OR2T8 (11738714_s_at) / Fold change /veh OR2T12 /// OR2T33 /// OR2T8 (11738714_s_at) / RFU VCAN (11748164_a_at) / Fold change /veh VCAN (11748164_a_at) / RFU JSRP1 (11732532_at) / Fold change /veh JSRP1 (11732532_at) / RFU KRTAP10-11 (11738290_x_at) / Fold change /veh KRTAP10-11 (11738290_x_at) / RFU MYO3A (11730013_a_at) / Fold change /veh MYO3A (11730013_a_at) / RFU EBF3 (11725865_a_at) / Fold change /veh EBF3 (11725865_a_at) / RFU CAMK2N1 (11719241_x_at) / Fold change /veh CAMK2N1 (11719241_x_at) / RFU C5orf56 (11738088_a_at) / Fold change /veh C5orf56 (11738088_a_at) / RFU OLFML3 (11715873_a_at) / Fold change /veh OLFML3 (11715873_a_at) / RFU LOC100653217 /// NTM (11731650_a_at) / Fold change /veh LOC100653217 /// NTM (11731650_a_at) / RFU MAPK11 (11762145_a_at) / Fold change /veh MAPK11 (11762145_a_at) / RFU FIZ1 (11724087_x_at) / Fold change /veh FIZ1 (11724087_x_at) / RFU OASL (11726364_x_at) / Fold change /veh OASL (11726364_x_at) / RFU SOX15 (11748057_x_at) / Fold change /veh SOX15 (11748057_x_at) / RFU CD79A (11719716_a_at) / Fold change /veh CD79A (11719716_a_at) / RFU HIST1H1D (11736915_at) / Fold change /veh HIST1H1D (11736915_at) / RFU CASKIN2 (11723855_a_at) / Fold change /veh CASKIN2 (11723855_a_at) / RFU LOC730098 (11760151_x_at) / Fold change /veh LOC730098 (11760151_x_at) / RFU OR4N2 (11742367_at) / Fold change /veh OR4N2 (11742367_at) / RFU PRRT2 (11749266_a_at) / Fold change /veh PRRT2 (11749266_a_at) / RFU SNX32 (11753110_a_at) / Fold change /veh SNX32 (11753110_a_at) / RFU CDHR5 (11726645_a_at) / Fold change /veh CDHR5 (11726645_a_at) / RFU RCAN1 (11760418_a_at) / Fold change /veh RCAN1 (11760418_a_at) / RFU FAM167A (11723789_a_at) / Fold change /veh FAM167A (11723789_a_at) / RFU FAM26E (11764081_at) / Fold change /veh FAM26E (11764081_at) / RFU ISYNA1 (11749810_s_at) / Fold change /veh ISYNA1 (11749810_s_at) / RFU ACY1 (11761880_at) / Fold change /veh ACY1 (11761880_at) / RFU 11764098_at / Fold change /veh 11764098_at / RFU SAMD14 (11745864_x_at) / Fold change /veh SAMD14 (11745864_x_at) / RFU NPB (11741838_a_at) / Fold change /veh NPB (11741838_a_at) / RFU TMPRSS6 (11731388_a_at) / Fold change /veh TMPRSS6 (11731388_a_at) / RFU KRTAP10-2 (11738614_at) / Fold change /veh KRTAP10-2 (11738614_at) / RFU ARHGAP8 /// PRR5-ARHGAP8 (11727945_x_at) / Fold change /veh ARHGAP8 /// PRR5-ARHGAP8 (11727945_x_at) / RFU KRTAP5-7 /// NADSYN1 (11734609_at) / Fold change /veh KRTAP5-7 /// NADSYN1 (11734609_at) / RFU RASL12 (11751679_a_at) / Fold change /veh RASL12 (11751679_a_at) / RFU CDKN2B (11736163_a_at) / Fold change /veh CDKN2B (11736163_a_at) / RFU PRF1 (11729649_at) / Fold change /veh PRF1 (11729649_at) / RFU, ZNF638 /// ZNF638-IT1 / Fold change vs veh, ZNF638 /// ZNF638-IT1 / RFU, PANK3 / Fold change vs veh, PANK3 / RFU, SH3YL1 / Fold change vs veh, SH3YL1 / RFU, ZEB2 / Fold change vs veh, ZEB2 / RFU, NRIP1 / Fold change vs veh, NRIP1 / RFU, PTTG1IP / Fold change vs veh, PTTG1IP / RFU, CAPN2 / Fold change vs veh, CAPN2 / RFU, MED14 / Fold change vs veh, MED14 / RFU, SNORA58 / Fold change vs veh, SNORA58 / RFU, C1orf63 / Fold change vs veh, C1orf63 / RFU, LRRFIP1 / Fold change vs veh, LRRFIP1 / RFU, NDUFAF7 / Fold change vs veh, NDUFAF7 / RFU, SLC12A2 / Fold change vs veh, SLC12A2 / RFU, IBTK / Fold change vs veh, IBTK / RFU, ESF1 / Fold change vs veh, ESF1 / Fold change vs veh, TMEM50B / RFU, TAOK1 / Fold change vs veh, TAOK1 / RFU, ACBD3 / Fold change vs veh, ACBD3 / RFU, TMA16 / Fold change vs veh, TMA16 / RFU, RWDD3 / Fold change vs veh, RWDD3 / RFU, BCAT1 / Fold change vs veh, BCAT1 / RFU, EDEM3 / Fold change vs veh, EDEM3 / RFU, TMEM33 / Fold change vs veh, TMEM33 / RFU, WDR75 / Fold change vs veh, WDR75 / RFU, AHCTF1 / Fold change vs veh, AHCTF1 / RFU, TFRC / Fold change vs veh, TFRC / RFU, ZDHHC17 / Fold change vs veh, ZDHHC17 / RFU, NOM1 / Fold change vs veh, NOM1 / RFU, ARL8B / Fold change vs veh, ARL8B / RFU, ZBTB11 / Fold change vs veh, ZBTB11 / RFU, TAMM41 / Fold change vs veh, TAMM41 / RFU, KIAA1704 /// LOC100996395 / Fold change vs veh, KIAA1704 /// LOC100996395 / RFU, ING1 / Fold change vs veh, ING1 / RFU, TRMT61B / Fold change vs veh, TRMT61B / RFU, FUBP3 / Fold change vs veh, FUBP3 / RFU, TP53 / Fold change vs veh, TP53 / RFU, TNKS2 / Fold change vs veh, TNKS2 / RFU, ZFP14 / Fold change vs veh, ZFP14 / RFU, ACTR2 / Fold change vs veh, ACTR2 / RFU, PPP3R1 / Fold change vs veh, PPP3R1 / RFU, PIK3R1 / Fold change vs veh, PIK3R1 / RFU, HNRNPA1 / Fold change vs veh, HNRNPA1 / RFU, RNF170 / Fold change vs veh, RNF170 / RFU, ZNF28 / Fold change vs veh, ZNF28 / RFU, RNGTT / Fold change vs veh, RNGTT / RFU, OGT / Fold change vs veh, OGT / RFU, BRD1 / Fold change vs veh, BRD1 / RFU, MARS / Fold change vs veh, MARS / RFU, ZNF655 / Fold change vs veh, ZNF655 / RFU, FAHD1 / Fold change vs veh, FAHD1 / RFU, BDP1 / Fold change vs veh, BDP1 / RFU, LRRCC1 / Fold change vs veh, LRRCC1 / RFU, ARID1A / Fold change vs veh, ARID1A / RFU, ZNF146 / Fold change vs veh, ZNF146 / RFU, ZNF330 / Fold change vs veh, ZNF330 / RFU, GPN3 / Fold change vs veh, GPN3 / RFU, C9orf123 / Fold change vs veh, C9orf123 / RFU, N4BP2L2 / Fold change vs veh, N4BP2L2 / RFU, ARFIP1 / Fold change vs veh, ARFIP1 / RFU, FAM179B / Fold change vs veh, FAM179B / RFU, BCL10 / Fold change vs veh, BCL10 / RFU, UHRF1BP1L / Fold change vs veh, UHRF1BP1L / RFU, BET1 / Fold change vs veh, BET1 / RFU, CNOT2 / Fold change vs veh, CNOT2 / RFU, ZNF268 / Fold change vs veh, ZNF268 / Fold change vs veh, ZNF507 / RFU, DGCR2 / Fold change vs veh, DGCR2 / RFU, WDSUB1 / Fold change vs veh, WDSUB1 / Fold change vs veh, HSP90B1 /// MIR3652 / RFU, ADSS / Fold change vs veh, ADSS / RFU, GK / Fold change vs veh, GK / RFU, ZNF148 / Fold change vs veh, ZNF148 / RFU, TAF9 / Fold change vs veh, TAF9 / RFU, SLC1A5 / Fold change vs veh, SLC1A5 / RFU, SLMO2 / Fold change vs veh, SLMO2 / RFU, ABCC4 / Fold change vs veh, ABCC4 / RFU, LOC101060439 /// RAP1B / Fold change vs veh, LOC101060439 /// RAP1B / RFU, RFX7 / Fold change vs veh, RFX7 / RFU, GTPBP10 / Fold change vs veh, GTPBP10 / RFU, CNEP1R1 / Fold change vs veh, CNEP1R1 / RFU, BIVM-ERCC5 /// ERCC5 / Fold change vs veh, BIVM-ERCC5 /// ERCC5 / RFU, ILF3 / Fold change vs veh, ILF3 / RFU 11762660_at / Fold change /veh 11762660_at / RFU VCAN (11757783_s_at) / Fold change /veh VCAN (11757783_s_at) / RFU DDX43 (11728927_at) / Fold change /veh DDX43 (11728927_at) / RFU KRT8 (11758188_x_at) / Fold change /veh KRT8 (11758188_x_at) / RFU NKD1 (11759106_at) / Fold change /veh NKD1 (11759106_at) / RFU SRD5A1 (11742802_a_at) / Fold change /veh SRD5A1 (11742802_a_at) / RFU TPSAB1 /// TPSB2 (11721975_s_at) / Fold change /veh TPSAB1 /// TPSB2 (11721975_s_at) / RFU GSTM3 (11746129_a_at) / Fold change /veh GSTM3 (11746129_a_at) / RFU IL23R (11737362_x_at) / Fold change /veh IL23R (11737362_x_at) / RFU TMEM51 (11727254_a_at) / Fold change /veh TMEM51 (11727254_a_at) / RFU PIWIL2 (11732686_x_at) / Fold change /veh PIWIL2 (11732686_x_at) / RFU ORM1 (11744905_x_at) / Fold change /veh ORM1 (11744905_x_at) / RFU CCDC152 (11743942_at) / Fold change /veh CCDC152 (11743942_at) / RFU ECM1 (11717891_a_at) / Fold change /veh ECM1 (11717891_a_at) / RFU IL23R (11748794_a_at) / Fold change /veh IL23R (11748794_a_at) / RFU TNFAIP8L3 (11732012_x_at) / Fold change /veh TNFAIP8L3 (11732012_x_at) / RFU MBOAT4 (11741988_at) / Fold change /veh MBOAT4 (11741988_at) / RFU 11764193_at / Fold change /veh 11764193_at / RFU TMEM53 (11763286_at) / Fold change /veh TMEM53 (11763286_at) / RFU MAGEB2 (11727129_at) / Fold change /veh MAGEB2 (11727129_at) / RFU TMEM200A (11744735_a_at) / Fold change /veh TMEM200A (11744735_a_at) / RFU CCDC152 (11751479_a_at) / Fold change /veh CCDC152 (11751479_a_at) / RFU FAM211A (11726209_a_at) / Fold change /veh FAM211A (11726209_a_at) / RFU RGS16 (11746705_a_at) / Fold change /veh RGS16 (11746705_a_at) / RFU VCAN (11755009_s_at) / Fold change /veh VCAN (11755009_s_at) / RFU RHOB (11743442_s_at) / Fold change /veh RHOB (11743442_s_at) / RFU RGS16 (11720943_a_at) / Fold change /veh RGS16 (11720943_a_at) / RFU RGS16 (11720944_at) / Fold change /veh RGS16 (11720944_at) / RFU, VPS4B / Fold change vs veh, VPS4B / RFU, CREB1 / Fold change vs veh, CREB1 / RFU, DNAJC13 / Fold change vs veh, DNAJC13 / RFU, GNAQ / Fold change vs veh, GNAQ / RFU, CDK5R1 / Fold change vs veh, CDK5R1 / RFU, ZRANB3 / Fold change vs veh, ZRANB3 / RFU, CUL4A / Fold change vs veh, CUL4A / RFU, CCNY / Fold change vs veh, CCNY / RFU, UFL1 / Fold change vs veh, UFL1 / RFU, COG3 / Fold change vs veh, COG3 / RFU, DIAPH2 / Fold change vs veh, DIAPH2 / RFU, SKA2 / Fold change vs veh, SKA2 / RFU, AFF3 / Fold change vs veh, AFF3 / RFU, LMF1 / Fold change vs veh, LMF1 / RFU, IPO11 / Fold change vs veh, IPO11 / RFU, DFFB / Fold change vs veh, DFFB / RFU, FOXP1 / Fold change vs veh, FOXP1 / RFU, CARD8 / Fold change vs veh, CARD8 / RFU, STRN3 / Fold change vs veh, STRN3 / RFU, ADK / Fold change vs veh, ADK / RFU, RASSF2 / Fold change vs veh, RASSF2 / RFU, WIPF1 / Fold change vs veh, WIPF1 / RFU, LARP1B / Fold change vs veh, LARP1B / RFU, RASA1 / Fold change vs veh, RASA1 / RFU, RB1 / Fold change vs veh, RB1 / RFU, PPFIA1 / Fold change vs veh, PPFIA1 / RFU, MAT2A / Fold change vs veh, MAT2A / RFU, CCT5 / Fold change vs veh, CCT5 / RFU, WDR92 / Fold change vs veh, WDR92 / RFU, CUX1 / Fold change vs veh, CUX1 / RFU, TTC7A / Fold change vs veh, TTC7A / RFU, TMEM135 / Fold change vs veh, TMEM135 / RFU, DEPTOR / Fold change vs veh, DEPTOR / RFU, CPM / Fold change vs veh, CPM / RFU, DNAJB6 / Fold change vs veh, DNAJB6 / RFU, CACNA2D3 / Fold change vs veh, CACNA2D3 / RFU, DTX4 / Fold change vs veh, DTX4 / RFU, TFCP2 / Fold change vs veh, TFCP2 / RFU, GMCL1 /// GMCL1P1 / Fold change vs veh, GMCL1 /// GMCL1P1 / RFU, AEBP2 / Fold change vs veh, AEBP2 / RFU, SNHG1 /// SNORD22 /// SNORD25 /// SNORD26 /// SNORD27 /// SNORD28 /// SNORD29 /// SNORD31 / Fold change vs veh, SNHG1 /// SNORD22 /// SNORD25 /// SNORD26 /// SNORD27 /// SNORD28 /// SNORD29 /// SNORD31 / Fold change (Aza/veh), C12orf56 (ProbeSet 11735607_a_at) / Fold change (ACY-1035/veh), C12orf56 (ProbeSet 11735607_a_at) / Fold change (Aza/veh), FGFR1OP (ProbeSet 11751329_s_at) / Fold change (ACY-1035/veh), FGFR1OP (ProbeSet 11751329_s_at) / Fold change (Aza/veh), VPS36 (ProbeSet 11739960_a_at) / Fold change (ACY-1035/veh), VPS36 (ProbeSet 11739960_a_at) / RFU SYPL1 (11715823_x_at) / Fold change /veh SYPL1 (11715823_x_at) / RFU IGFBP7 (11715501_s_at) / Fold change /veh IGFBP7 (11715501_s_at) / RFU REEP3 (11722064_at) / Fold change /veh REEP3 (11722064_at) / RFU IGLL1 (11728026_x_at) / Fold change /veh IGLL1 (11728026_x_at): dose or concentration left out as unconfirmed", "conditions": "MV-4-11 cells, 48 hours", "data": [{"smiles": "Nc1ccc(-c2cccs2)cc1NC(=O)c1ccc2c(c1)cc(C1CC1)n2CCN1CCOCC1", "note": "[ACY-1035]", "values": [{"measurement": "Fold change /veh DUSP10 (11751237_a_at)", "result": 1.17}]}]}
